Earlier results, collected in patent US20150272935A1, “Use of a Factor Xa Inhibitor for Treating and Preventing Bleeding Events And Related Disorders in Patients Having Sensitivity to Vitamin K Antagonists Used As Anticoagulants” (priority 2014, published 2015).
Where two headings read alike, the source gives them in different places.

Assays:
[1] = rats
[2] = monkeys
CYP2C9*2 = CYP2C9*2 (Homo sapiens, UniProt P11712, R144C); settings: CYP2C9*2 versus CYP2C9*1
CYP2C9*3 = CYP2C9*3 (Homo sapiens, UniProt P11712, I359L); settings: CYP2C9*3 versus CYP2C9*1

| oral bioavailability [1] | oral bioavailability [2] | oral bioavailability (human subjects) | reduction of warfarin metabolism (CYP2C9*2) | reduction of warfarin metabolism (CYP2C9*3) | SMILES | safety and tolerability (doses of up to 90 mg per day) |
| --- | --- | --- | --- | --- | --- | --- |
| orally bioavailable | orally bioavailable | orally bioavailable |  |  | CN1CCc2nc(C(=O)N[C@@H]3C[C@@H](C(=O)N(C)C)CC[C@@H]3NC(=O)C(=O)Nc3ccc(Cl)cn3)sc2C1.Cc1ccc(S(=O)(=O)O)cc1 [Edoxaban] | generally safe and well tolerated |
|  |  |  | about 30% | about 90% | CC(=O)CC(c1ccccc1)c1c(O)c2ccccc2oc1=O (stereo not drawn) [Warfarin] |  |
